One data set has as its system HCT-116. In words: HCT-116 MTS cell viability assay. Type of data set: cell-based. The following applies: Homo sapiens, HCT-116 cells. For orientation: Formazan colour is commonly taken as a measure of viable cells.
The target in another data set is T1, nucleolin (Homo sapiens, UniProt P19338).
T1 construct: without the N-terminal acidic stretches domain
In words: Nucleolin/nucleic acid ligand gel retardation binding assay. Details: key: A “+” represents the weakest nucleolin affinity; a “++++” represents the strongest nucleolin affinity. As to conditions: relative affinity of nucleic acid ligand for recombinant nucleolin (MBP fusion). The method, then: The following assays can be used to assess the effects of compounds on interactions between nucleolin and nucleic acid ligands capable of forming quadruplex (QP) and hairpin (HP) secondary structures. Nucleic acid ligands tested were a cMyc QP DNA having nucleotide sequence 5′-[…]-3′ and a HP pre-rRNA region to which nucleolin binds, having the sequence 5′-[…]-3′. In the assays, recombinant nucleolin (˜250 nM), which has been fused to maltose binding protein, and has the sequence under accession number NM_005381 without the N-terminal acidic stretches domain, is incubated with each of the two ^32P-labeled nucleic acid ligands (10 or 250 nM). Nucleolin and the nucleic acid ligand are incubated in the presence or absence of a test compound 7 in an incubation buffer (12.5 mM Tris, pH 7.6, 60 mM KCl, 1 mM MgCl2, 0.1 mM EDTA, 1 mM DTT, 5% glycerol, 0.1 mg/ml BSA) for 30 minutes at room temperature.
The resulting complexes are separated on a 6% DNA retardation gel using 0.5×TBE with 20 mM KCl as a running buffer. The assay also can be conducted using nucleic acid ligands derived from human ribosomal DNA, whereby one can identify a compound that selectively modulates formation of a nucleolin/nucleic acid complex that depends on the conformation of the nucleic acid. Sequences of suitable nucleic acids are shown in the preceding example. […] A “+” represents the weakest nucleolin affinity and a “++++” represents the strongest nucleolin affinity. […] Using nucleic acids such as these having known conformational properties, one can identify a compound such as the compounds described herein that selectively interferes with binding of nucleolin to a particular quadruplex structure.

The values below come from patent US20110112086A1, “PYRIDINONE ANALOGS” (CYLENE PHARMACEUTICALS, INC., priority 2006, published 2011).

In general, IC50 refers to the concentration at which inhibition is half-maximal.

T1 sequence (P19338 284-710 limits assumed): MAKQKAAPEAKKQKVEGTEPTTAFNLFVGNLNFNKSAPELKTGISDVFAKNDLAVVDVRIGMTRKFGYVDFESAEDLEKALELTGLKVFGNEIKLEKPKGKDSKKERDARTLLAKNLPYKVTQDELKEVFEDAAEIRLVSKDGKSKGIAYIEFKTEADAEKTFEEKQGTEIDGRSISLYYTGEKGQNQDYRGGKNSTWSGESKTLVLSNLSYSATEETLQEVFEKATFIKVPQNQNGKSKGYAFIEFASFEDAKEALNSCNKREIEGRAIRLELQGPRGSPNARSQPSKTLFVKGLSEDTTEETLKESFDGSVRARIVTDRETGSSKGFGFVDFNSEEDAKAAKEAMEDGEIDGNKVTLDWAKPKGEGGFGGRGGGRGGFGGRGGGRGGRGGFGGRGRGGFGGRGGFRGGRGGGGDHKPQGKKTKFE

In the data set with HCT-116, `O=C(NCCN1CCCC1)c1c(=O)c2ccsc2n2c1sc1ccccc12` returned an IC50 of 40 nM. The same measure, in the same setting: in the case of `O=C(NCCN1CCOCC1)c1c(=O)c2ccsc2n2c1sc1ccccc12` it was 2100 nM; in that of `O=C(NCc1ccccn1)c1c(=O)c2ccsc2n2c1sc1ccccc12`, 2050 nM. Still for that read-out and setting: in the case of `CCOC(=O)c1c(=O)c2cc(Cl)sc2n2c1sc1ccccc12` it was 10000 nM; in that of `O=C(NCCN1CCCC1)c1c(=O)c2cc(Cl)sc2n2c1sc1ccccc12`, 10 nM. Still for that read-out and setting: then `O=C(NCCN1CCCC1)c1c(=O)c2cc(N3CCCC3)sc2n2c1sc1ccccc12`, with 50 nM. In turn, `CCOC(=O)c1c(=O)c2ccsc2n2c1sc1ccccc12` returned an IC50 in the data set with HCT-116 of 9800 nM. `CCOC(=O)c1c(=O)c2ccsc2n2c1[nH]c1ccccc12` showed an IC50 in the data set with HCT-116 of 10000 nM. For the molecule `Cn1c2cc3ccccc3cc2n2c3sccc3c(=O)c(C(=O)NCCN3CCCC3)c12`, half-maximal inhibition with HCT-116 (IC50) required 300 nM. Same read-out and setting: in the case of `CCOC(=O)c1c(=O)c2cc(Br)sc2n2c1sc1ccccc12` it was 10000 nM; in that of `CCOC(=O)c1c(=O)c2ccsc2n2c1[nH]c1cc3ccccc3cc12`, 4000 nM; in that of `Cn1c2ccccc2n2c3sccc3c(=O)c(C(=O)NCCN3CCCC3)c12`, 3200 nM. “1196NT: nucleic acid ligand derived from human ribosomal DNA: GGGTGGACGGGGGGGCCTGGTGGGG (chemistry not given here) [Compound 1196NT]”: in the data set with nucleolin, the “Affinity for Nucleolin” value is recorded as “+”. The same measure, in the same setting: in the case of “6183NT: nucleic acid ligand derived from human ribosomal DNA: GGGTCGGGGGCGGTGGTGGGCCCGCGGGGG (chemistry not given here) [Compound 6183NT]” it was “+”; in that of “7733T: nucleic acid ligand derived from human ribosomal DNA: GGGAGGGGCACGGGCCGGGGGCGGGACGGG (chemistry not given here) [Compound 7733T]”, “+”; in that of “8511NT: nucleic acid ligand derived from human ribosomal DNA: GGGGGTGGGCGGGCGGGGCCGGGGGTGGG (chemistry not given here) [Compound 8511NT]”, “++++”. Regarding “8749NT: nucleic acid ligand derived from human ribosomal DNA: GGGAGGGCGCGCGGGTCGGGG (chemistry not given here) [Compound 8749NT]”, the “Affinity for Nucleolin” value with nucleolin is “+”. As to “11028NT: nucleic acid ligand derived from human ribosomal DNA: GGGGCGCGGCGGGGGGAGAAGGGTCGGGGCGGCAGGGG (chemistry not given here) [Compound 11028NT]”, the “Affinity for Nucleolin” value in the data set with nucleolin was “+”.

B1: 8762NT: nucleic acid ligand derived from human ribosomal DNA: CGGAGGGCGCGCGGGTCGGGGCGGCGGCGGCGGCGGCGGTGGCGGCGGCGGCGGGGGCGGCGGG (nucleic acid)
DNA: CGGAGGGCGCGCGGGTCGGGGCGGCGGCGGCGGCGGCGGTGGCGGCGGCGGCGGGGGCGGCGGG
modifications: chemistry not given here
With B1, the “Affinity for Nucleolin” value with nucleolin is “++++”.
